For one test, the system named is GFP+ 5TGM1 myeloma cells. Kind of test: Combination treatment with PS/2 and melphalan in C57BL/KaLwRij model of multiple myeloma. The conditions noted are these: day 27. It counts as in vivo, C57BL/KaLwRij mice. The text has this: Additive/synergistic effects of the combination of PS/2 mAb and melphalan were seen under most conditions. In these experiments, the 5TGM1 cells injected into the animals were transfected with an expression vector containing the GFP gene. These myeloma cells expressed the GFP protein, allowing the myeloma cells to be tracked directly as GFP+ myeloma cells. These myeloma cells could also be tracked as mIgG2b positive cells. The data were only useful on day 27.

The subject of test [1] is 5TGM1 myeloma cells. Kind of test: Survival by onset of hindleg paralysis of 5TGM1-bearing mice, melphalan and PS/2 mAb. The format is in vivo, scid/nu/bg mice. Here is the method: We also examined the effects of the combined administration of melphalan (100 μg/mouse) and PS/2 mAb on survival of 5TGM1-bearing mice (scid/nu/bg mice). We evaluated survival by the onset of hindleg paralysis (i.e., the onset of hindleg paralysis was the end-point in these experiments). […] Thus, we can reduce the dose of Melphalan to a quarter in the presence of the anti-α4Ab, as compared to melphalan alone.

Test [2] concerns 5TGM1 mouse myeloma cells. Kind of test: α4Ab and melphalan in 5TGM1-inoculated xid-nu-bg mice. The format is in vivo. Here is the method:
Here, we studied the effects of a neutralizing antibody to α4 integrin (α4Ab), which disrupts stromal cells/myeloma cell interactions, on the sensitivity of myeloma to melphalan, a most widely-used chemotherapeutic agent for myeloma, using the 5TGM1 mouse myeloma cells that reproducibly cause extensive osteolysis in tumor-bearing animals. The α4Ab (100-200 μg/mouse, i.p., 2 or 3 times a week) and melphalan (50, 100, 200 μg/mouse, i.p., once a week) were administered following inoculation of 5TGM1 cells in the tail vein in male xid-nu-bg mice.

The subject of test [3] is 5TGM1 myeloma cells. In words: Combined effects of melphalan and anti-alpha 4 integrin Ab in 5TGM1 model (scid/nu/bg mice, day 28). It counts as in vivo. The conditions noted are these: mAb 200 μg first week then 100 μg, melphalan three times. As to the method:
In one particular set of experiments on the combined effects of melphalan and anti-alpha 4 integrin Ab in 5TGM1 model, as shown in an experimental protocol in FIG. 7, an initial high dose of 200 μg mAb was given during the first week, followed by a maintenance dose of 100 μg. Melphalan was given three times. Animals (scid/nu/bg mice) were sacrificed at day 28 and serum IgG2b levels (a surrogate marker of tumor burden) and tumor burden in bone were measured (histomorphometric analysis of bones). […] The data were a summary of two experiments combined.

The next test relates to VLA-4 and VLA-5. The conditions noted are these: cited from earlier work.
For the next test, the target named is VLA-4 (Homo sapiens, UniProt P05556+P13612). The conditions noted are these: cited from earlier work.
VLA-4, sequence (P13612 34-1032): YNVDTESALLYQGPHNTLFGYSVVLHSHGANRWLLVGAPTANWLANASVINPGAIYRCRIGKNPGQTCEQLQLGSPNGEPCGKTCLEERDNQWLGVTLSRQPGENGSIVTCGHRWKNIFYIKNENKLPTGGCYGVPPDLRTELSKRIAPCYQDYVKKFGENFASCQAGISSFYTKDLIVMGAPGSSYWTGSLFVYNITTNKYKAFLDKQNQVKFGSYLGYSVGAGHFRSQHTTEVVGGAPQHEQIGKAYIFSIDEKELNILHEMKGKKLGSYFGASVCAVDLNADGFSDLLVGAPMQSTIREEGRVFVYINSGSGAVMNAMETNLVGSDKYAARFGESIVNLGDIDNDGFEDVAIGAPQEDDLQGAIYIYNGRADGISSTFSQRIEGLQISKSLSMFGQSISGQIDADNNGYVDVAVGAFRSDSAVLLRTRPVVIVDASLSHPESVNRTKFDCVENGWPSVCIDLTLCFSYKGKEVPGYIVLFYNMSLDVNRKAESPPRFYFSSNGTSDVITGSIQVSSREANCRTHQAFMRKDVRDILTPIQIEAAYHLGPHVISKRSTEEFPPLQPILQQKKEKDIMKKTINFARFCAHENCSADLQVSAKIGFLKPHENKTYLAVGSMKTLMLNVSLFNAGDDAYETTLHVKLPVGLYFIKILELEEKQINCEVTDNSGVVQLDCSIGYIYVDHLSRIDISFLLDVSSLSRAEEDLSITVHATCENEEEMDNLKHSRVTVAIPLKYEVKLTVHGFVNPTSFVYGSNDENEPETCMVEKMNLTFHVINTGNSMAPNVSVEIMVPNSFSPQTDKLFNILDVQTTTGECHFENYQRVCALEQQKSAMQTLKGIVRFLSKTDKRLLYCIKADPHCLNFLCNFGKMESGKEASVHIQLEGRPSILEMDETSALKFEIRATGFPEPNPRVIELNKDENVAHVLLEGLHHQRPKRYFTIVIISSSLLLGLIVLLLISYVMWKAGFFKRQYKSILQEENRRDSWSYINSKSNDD
VLA-4, sequence (P05556 21-798): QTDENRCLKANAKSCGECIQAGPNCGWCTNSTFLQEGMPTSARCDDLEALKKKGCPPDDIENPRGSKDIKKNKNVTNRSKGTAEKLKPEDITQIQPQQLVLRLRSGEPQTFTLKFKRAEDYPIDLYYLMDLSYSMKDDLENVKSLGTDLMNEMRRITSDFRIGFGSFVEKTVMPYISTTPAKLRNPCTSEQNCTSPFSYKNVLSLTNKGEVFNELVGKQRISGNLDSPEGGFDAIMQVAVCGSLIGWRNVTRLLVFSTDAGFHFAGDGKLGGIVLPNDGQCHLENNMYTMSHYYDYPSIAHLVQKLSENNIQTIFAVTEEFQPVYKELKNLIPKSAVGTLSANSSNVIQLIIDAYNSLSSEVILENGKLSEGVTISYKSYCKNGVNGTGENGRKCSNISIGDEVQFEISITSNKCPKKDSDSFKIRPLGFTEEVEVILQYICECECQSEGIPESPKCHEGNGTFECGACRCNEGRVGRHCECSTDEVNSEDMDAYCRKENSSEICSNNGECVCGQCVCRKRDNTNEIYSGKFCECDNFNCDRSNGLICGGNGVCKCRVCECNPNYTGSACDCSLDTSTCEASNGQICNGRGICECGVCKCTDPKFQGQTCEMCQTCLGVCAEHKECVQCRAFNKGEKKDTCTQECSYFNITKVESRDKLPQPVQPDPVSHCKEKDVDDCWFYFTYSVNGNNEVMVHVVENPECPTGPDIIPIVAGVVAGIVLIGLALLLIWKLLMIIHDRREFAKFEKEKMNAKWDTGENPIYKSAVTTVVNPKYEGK
In test [4] the target is integrin VLA-4 expressed on 5TGM1 murine myeloma cells (murine) (UniProt Q00651). Kind of test: cell-based or functional assay.
integrin VLA-4 expressed on 5TGM1 murine myeloma cells (murine), sequence (Q00651 41-1039, chain 1 of 2): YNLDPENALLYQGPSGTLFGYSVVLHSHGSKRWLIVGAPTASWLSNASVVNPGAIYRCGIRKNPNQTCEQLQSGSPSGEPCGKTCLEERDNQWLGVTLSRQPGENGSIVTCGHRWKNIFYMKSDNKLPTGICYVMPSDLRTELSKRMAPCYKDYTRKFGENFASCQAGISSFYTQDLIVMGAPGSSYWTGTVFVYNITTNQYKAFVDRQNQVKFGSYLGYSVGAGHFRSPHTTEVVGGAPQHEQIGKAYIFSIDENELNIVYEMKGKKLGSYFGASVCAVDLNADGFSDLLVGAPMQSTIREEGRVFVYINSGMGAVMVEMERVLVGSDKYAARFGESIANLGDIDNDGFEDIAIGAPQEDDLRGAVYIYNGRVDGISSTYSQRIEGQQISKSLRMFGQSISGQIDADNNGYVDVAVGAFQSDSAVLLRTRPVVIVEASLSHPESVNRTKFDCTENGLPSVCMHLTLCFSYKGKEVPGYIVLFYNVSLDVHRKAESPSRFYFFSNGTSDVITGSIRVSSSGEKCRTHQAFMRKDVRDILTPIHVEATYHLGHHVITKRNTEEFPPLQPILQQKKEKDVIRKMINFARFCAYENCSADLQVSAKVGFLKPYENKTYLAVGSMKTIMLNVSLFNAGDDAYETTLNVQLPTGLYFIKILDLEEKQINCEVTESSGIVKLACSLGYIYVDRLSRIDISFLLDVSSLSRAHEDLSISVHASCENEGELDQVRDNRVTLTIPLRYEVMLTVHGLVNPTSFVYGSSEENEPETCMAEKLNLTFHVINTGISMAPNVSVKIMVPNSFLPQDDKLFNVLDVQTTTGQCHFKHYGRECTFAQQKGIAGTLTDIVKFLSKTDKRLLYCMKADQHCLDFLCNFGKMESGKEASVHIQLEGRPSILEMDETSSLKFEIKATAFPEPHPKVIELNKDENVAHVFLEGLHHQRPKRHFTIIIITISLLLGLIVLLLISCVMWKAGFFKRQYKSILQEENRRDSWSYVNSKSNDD
integrin VLA-4 expressed on 5TGM1 murine myeloma cells (murine), sequence (P09055 21-798, chain 2 of 2, further chain): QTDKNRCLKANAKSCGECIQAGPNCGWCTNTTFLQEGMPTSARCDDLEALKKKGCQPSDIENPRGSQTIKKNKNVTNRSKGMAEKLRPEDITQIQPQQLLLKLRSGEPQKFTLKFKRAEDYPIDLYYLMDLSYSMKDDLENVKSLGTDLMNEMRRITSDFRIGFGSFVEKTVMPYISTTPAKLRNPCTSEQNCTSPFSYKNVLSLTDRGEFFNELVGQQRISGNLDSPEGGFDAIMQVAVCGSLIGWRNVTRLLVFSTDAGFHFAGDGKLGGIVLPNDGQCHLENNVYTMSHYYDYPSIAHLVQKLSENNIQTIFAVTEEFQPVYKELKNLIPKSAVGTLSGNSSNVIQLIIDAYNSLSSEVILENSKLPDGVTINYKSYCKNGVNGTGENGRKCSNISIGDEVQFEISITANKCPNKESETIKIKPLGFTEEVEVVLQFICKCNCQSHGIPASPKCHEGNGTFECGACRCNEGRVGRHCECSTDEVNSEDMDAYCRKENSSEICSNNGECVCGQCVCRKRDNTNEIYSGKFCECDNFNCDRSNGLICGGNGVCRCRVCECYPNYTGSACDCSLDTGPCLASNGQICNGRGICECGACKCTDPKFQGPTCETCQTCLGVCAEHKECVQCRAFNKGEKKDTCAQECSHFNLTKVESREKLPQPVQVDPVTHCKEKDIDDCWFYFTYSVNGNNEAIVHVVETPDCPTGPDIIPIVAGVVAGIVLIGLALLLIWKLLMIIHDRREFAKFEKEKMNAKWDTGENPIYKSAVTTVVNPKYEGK
The target of test [5] is VCAM-1 expressed on ST2 mouse bone marrow stromal cells (murine) (UniProt P29533). In words: cell-based or functional assay.
VCAM-1 expressed on ST2 mouse bone marrow stromal cells (murine), sequence (P29533 25-739): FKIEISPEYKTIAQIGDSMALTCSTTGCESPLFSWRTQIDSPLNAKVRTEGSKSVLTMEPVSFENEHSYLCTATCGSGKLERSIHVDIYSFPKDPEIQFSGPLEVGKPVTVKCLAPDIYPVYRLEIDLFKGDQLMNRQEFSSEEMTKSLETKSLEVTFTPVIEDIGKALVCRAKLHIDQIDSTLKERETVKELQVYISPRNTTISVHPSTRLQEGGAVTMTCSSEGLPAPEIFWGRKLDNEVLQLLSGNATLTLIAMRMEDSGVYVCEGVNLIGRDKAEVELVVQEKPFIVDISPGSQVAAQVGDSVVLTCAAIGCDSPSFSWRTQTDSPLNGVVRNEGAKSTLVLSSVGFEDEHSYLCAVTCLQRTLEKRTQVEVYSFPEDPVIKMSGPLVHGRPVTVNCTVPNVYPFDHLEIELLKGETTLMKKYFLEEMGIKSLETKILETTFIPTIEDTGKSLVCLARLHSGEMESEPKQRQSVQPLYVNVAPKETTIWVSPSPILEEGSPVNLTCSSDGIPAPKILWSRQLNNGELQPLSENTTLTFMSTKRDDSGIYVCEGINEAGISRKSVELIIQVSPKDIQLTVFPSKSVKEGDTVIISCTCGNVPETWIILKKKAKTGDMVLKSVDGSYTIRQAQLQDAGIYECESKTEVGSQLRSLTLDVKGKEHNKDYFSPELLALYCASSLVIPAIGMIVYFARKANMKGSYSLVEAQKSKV
The test system of a further test is Rank ligand mRNA. Kind of test: Expression of Rank ligand mRNA in 5TGM1 and ST2 cells. It counts as cell-based, mouse. From the text: Because Rank ligand appears to be an important mediator of OCL formation and may be the final common pathway for the effects of osteoclastogenic cytokines on OCL formation, we have examined the expression of Rank ligand in 5TGM1 and ST2 cells both individually and when cocultured. We find that coculture of 5TGM1 and ST2 cells induces Rank ligand mRNA in the ST2 cells.

A further test relates to 5TGM1 cells. In words: Osteoclastogenic activity of conditioned medium of sVCAM-1-treated 5TGM1 cells in mouse marrow cultures. The format is cell-based. The settings on record: 6 days, 1×10^−7 M sVCAM-1. As to the method:
Conditioned medium was harvested from 5TGM1 cells cultured in the presence or absence of sVCAM-1 (1×10^−8 to 1×10^−7 Molar) for 24 hours. Osteoclastogenic activity of these conditioned media was assayed in the mouse marrow cultures. Bone marrow cells (1e6/well) were plated into 48-well plates, and cultured in the presence of conditioned media (hatched bars) or control medium (IMDM) containing the same concentrations of sVCAM-1 (open bars). After 6 days, cultures were fixed and the number of TRAP-positive multinucleated OC-like cells (TRAP+MNC) was determined.

The subject of test [6] is 45Ca-labeled fetal rat long bones. In words: Bone resorption in organ cultures of 45Ca-labeled fetal rat long bones. The format is cell-based. As to the method:
Conditioned media harvested from 5TGM1 cultures were assayed for bone-resorbing activity by organ cultures of 45Ca-labeled fetal rat long bones as described previously (Mbalaviele 1995). Pregnant rats were injected with 250 uCi of 45Ca (New England Nuclear) on the 18th day of gestation. Radius and ulna bone shafts were obtained from 19-day fetuses by microdissection, and precultured for 24 h in BGJ medium (Sigma) supplemented with 0.1% BSA between air and liquid-phase on stainless mesh grids. Bones were then cultured in the presence of conditioned media (50% v/v) or in control medium for 120 hours. The media were changed once at 48 hours. At the end of the culture, bones were incubated in ice-cold 5% trichloroacetic acid for 2 h, and 45Ca radioactivity in bones and media determined in a liquid scintillation counter. Bone resorption was quantitated as the percentage of 45Ca released into the medium from bones as calculated by: (45Ca count in medium)/(45Ca count in medium and bone)×100.

The text below walks through data of US7618630B2, “Methods of treating multiple myeloma and myeloma-induced bone resorption using integrin antagonists” (Board of Regents, The University of Texas System, priority 1998, dated 2009).

“Also recorded” adds a separate entry of the source.

For the molecule `N[C@@H](Cc1ccc(N(CCCl)CCCl)cc1)C(=O)O` [melphalan], in the test with GFP+ 5TGM1 myeloma cells, the mIgG2b plasma levels entry is “unaffected”, the “percentage of GFP+ myeloma cells in blood” value is given as “unaffected”, the “percentage of GFP+ myeloma cells in bone marrow” value is on record as “Neither melphalan nor PS/2 mAb alone affected” and the “percentage of GFP+ myeloma cells in spleen” value was “unaffected”. Also, the “onset of hindleg paralysis” value with 5TGM1 myeloma cells [1] (melphalan 100 μg/mouse and/or anti-α4Ab) is “had no effect on the onset of hindleg paralysis”. Also, the “onset of hindleg paralysis” value in the test with 5TGM1 myeloma cells [1] (melphalan alone 200 μg/mouse) was “significantly delayed the onset”. Further, the “serum IgG2 levels” value in [2] (melphalan alone 200 μg/mouse) is listed as “significantly suppressed”. Also, the “serum IgG2 levels” value in test [2] (melphalan alone 50 and 100 μg/mouse i.p. once a week) is on record as “failed to suppress serum IgG2 levels”. Besides, the “serum IgG2b levels” value in the test with 5TGM1 myeloma cells [3] was “only modestly affected”.
Regarding Arg-Cys-Asp-TPro-Cys, the “inhibition of VLA-4 and VLA-5 adhesion to fibronectin” value in the test on VLA-4 and VLA-5 is “can inhibit both VLA-4 and VLA-5 adhesion to fibronectin”.
On to “Leu-Asp-Val-Pro-Ser (LDVPS) [pentapeptide of the fibronectin CS-1 region]”, for which, in the test with VLA-4, the “inhibitory activity against fibronectin-dependent cell adhesion” value is on record as “possessed inhibitory activity against fibronectin-dependent cell adhesion”.
The molecule mAb PS/2 to VLA-4 (antibody) gave an attachment of 5TGM1 cells to ST2 monolayers in test [4] of 50 to 80%.
On to “Glu-Ile-Leu-Asp-Val (EILDV) [pentapeptide of the fibronectin CS-1 region]”, for which the “inhibitory activity against fibronectin-dependent cell adhesion” value in the test with VLA-4 is “possessed inhibitory activity against fibronectin-dependent cell adhesion”.
mAb M/K-2.7 to murine VCAM-1 (antibody): in [5], the attachment of 5TGM1 cells to ST2 monolayers lay within 50 to 80%.

B1: sVCAM-1: recombinant soluble VCAM-1 containing the 7 extracellular domains of human VCAM-1 (protein)
chain: FKIETTPESRYLAQIGDSVSLTCSTTGCESPFFSWRTQIDSPLNGKVTNEGTTSTLTMNPVSFGNEHSYLCTATCESRKLEKGIQVEIYSFPKDPEIHLSGPLEAGKPITVKCSVADVYPFDRLEIDLLKGDHLMKSQEFLEDADRKSLETKSLEVTFTPVIEDIGKVLVCRAKLHIDEMDSVPTVRQAVKELQVYISPKNTVISVNPSTKLQEGGSVTMTCSSEGLPAPEIFWSKKLDNGNLQHLSGNATLTLIAMRMEDSGIYVCEGVNLIGKNRKEVELIVQEKPFTVEISPGPRIAAQIGDSVMLTCSVMGCESPSFSWRTQIDSPLSGKVRSEGTNSTLTLSPVSFENEHSYLCTVTCGHKKLEKGIQVELYSFPRDPEIEMSGGLVNGSSVTVSCKVPSVYPLDRLEIELLKGETILENIEFLEDTDMKSLENKSLEMTFIPTIEDTGKALVCQAKLHIDDMEFEPKQRQSTQTLYVNVAPRDTTVLVSPSSILEEGSSVNMTCLSQGFPAPKILWSRQLPNGELQPLSENATLTLISTKMEDSGVYLCEGINQAGRSRKEVELIIQVTPKDIKLTAFPSESVKEGDTVIISCTCGNVPETWIILKKKAETGDTVLKSIDGAYTIRKAQLKDAGVYECESKNKVGSQLRSLTLDVQGRENNKDYFSPE
For the molecule B1, in the test with Rank ligand mRNA (5TGM1 cells treated with sVCAM-1), the “Rank ligand expression in 5TGM1 cells” value is listed as “they do so when treated with sVCAM-1”. In the test with Rank ligand mRNA (conditioned medium from 5TGM1 cells treated with sVCAM-1), the “Rank ligand mRNA in ST2 cells” value was “induced Rank ligand mRNA in ST2 cells”. Further, the “OC-like cell (TRAP(+)MNC) formation by conditioned medium from 5TGM1 cells treated with sVCAM-1” value in the test with 5TGM1 cells is recorded as “showed increased activity of OC-like cell formation; also recorded: increased TRAP(+)MNC formation”. In test [6], the “bone resorption by conditioned medium of 5TGM1 treated with sVCAM-1” value was “increased bone resorption in fetal rat long bones in a dose-dependent manner” and the “bone resorption, soluble VCAM-1 itself” value is “had no effects on bone resorption”.
